Measured values reported in US7273848B2, “Apolipoprotein A-I agonists and their use to treat dyslipidemic disorders” (priority 1997, dated 2007).
Non-standard residues stand in square brackets, D forms with d. Residues, ends and D or L forms follow the SMILES beside them. No end group written: not given here. 1Nal = N[C@@H](Cc1cccc2ccccc12)C(=O)O; Aib = CC(C)(N)C(=O)O

Columns and labels:
[1] = Circular dichroism helicity determination; assay type: physicochemical; conditions: percent helicity; for He (%) TFE: 5 μM peptide, 90% vol TFE; for He (%) TFE / He (%) SUVs: 37° C.; for He (%) free: unbound peptide 5 μM in 5 mM phosphate buffer, pH 7.4, 37° C.; for He (%) SUVs: peptide-SUV complexes (20:1 EPC:Chol., Ri=30 and Ri=50); for He (%) mics: peptide-micelle complexes, Ri=100, 37° C.
How it was run: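 Far-UV CD (190–260 nm) at 37° C on 5 μM peptide in 5 mM phosphate pH 7.4, free, with EPC:Chol 20:1 SUVs (Ri 30 or 50), lysophosphatidylcholine micelles (Ri 100) or 90% TFE. Spectra converted to molar ellipticity per residue; helicity from 222 nm ellipticity or CONTIN fitting to reference spectra, ±5%.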

[2] = target: T1, LCAT (purified from human plasma) (Homo sapiens, UniProt P04180); test: LCAT activation assay; assay type: biochemical; conditions: LCAT activation as compared with native human ApoA-I (= 100%), equivalent masses
T1 construct: from tissue; host or cells: human plasma
T1 sequence (P04180 25-440): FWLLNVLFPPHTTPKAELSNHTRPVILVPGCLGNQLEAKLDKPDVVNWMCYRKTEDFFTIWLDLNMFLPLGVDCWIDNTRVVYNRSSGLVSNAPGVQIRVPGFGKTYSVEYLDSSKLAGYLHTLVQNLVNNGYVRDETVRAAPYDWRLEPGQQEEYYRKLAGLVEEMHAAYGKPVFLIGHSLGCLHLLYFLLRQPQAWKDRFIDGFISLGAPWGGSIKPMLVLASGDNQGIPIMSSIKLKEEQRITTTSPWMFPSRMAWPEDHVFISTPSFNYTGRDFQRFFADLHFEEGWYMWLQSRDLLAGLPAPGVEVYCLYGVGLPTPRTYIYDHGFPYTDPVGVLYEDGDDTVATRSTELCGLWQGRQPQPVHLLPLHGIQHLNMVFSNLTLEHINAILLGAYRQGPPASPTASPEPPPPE
How it was run: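 Substrate SUVs of EPC or POPC with 14C-cholesterol (20:1 molar ratio), in 10 mM Tris, 0.14 M NaCl, 1 mM EDTA, pH 7.4, were preincubated with peptide or equal mass of plasma ApoA-I. Reaction started with human plasma LCAT; activation was measured as cholesterol-to-ester conversion relative to ApoA-I (100%).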

Row | He (%) TFE [1] | He (%) free [1] | He (%) SUVs [1] | He (%) mics [1] | ACTIVITY (%) LCAT [2] | ACTIVITY (%) LCAT ([2]; listed as 18AM4) | Compound
1 | 77% | 66% | 79% | 84% | 25% |  | PVLDLFNELLRELLEALQKKLK [compound 40]
2 | 71% | 60% | 70% | 87% | 79% |  | CC(C)C[C@H](NC(=O)[C@H](CCCCN)NC(=O)[C@H](CCC(N)=O)NC(=O)[C@H](CCCCN)NC(=O)[C@H](Cc1cccc2ccccc12)NC(=O)[C@H](C)NC(=O)[C@H](CCC(=O)O)NC(=O)[C@H](CC(C)C)NC(=O)[C@H](CC(C)C)NC(=O)[C@H](CCC(=O)O)NC(=O)[C@H](CC(N)=O)NC(=O)[C@H](CC(C)C)NC(=O)[C@H](CC(C)C)NC(=O)[C@H](CCC(=O)O)NC(=O)[C@H](CCCNC(=N)N)NC(=O)[C@H](Cc1ccccc1)NC(=O)[C@H](CC(C)C)NC(=O)[C@H](CC(=O)O)NC(=O)[C@H](CC(C)C)NC(=O)[C@@H](NC(=O)[C@@H]1CCCN1)C(C)C)C(=O)N[C@@H](CCCCN)C(=O)O [peptide 10, PVLDLFRELLNELLEAZKQKLK] (H-PVLDLFRELLNELLEA[1Nal]KQKLK-OH)
3 | 70% | 64% | 66% | 82% | 15% |  | PVLDLFRNLLEELLEALQKKLK [compound 66]
4 |  | 18% | 47% | 44% | 4% | less than 4% | EWLEAFYKKVLEKLKELF [peptide 246, reference compound]
5 |  | 18% | 13% | 45% | 3% |  | EWLKAFYEKVLEKLKELF [peptide 248, reference compound]
6 |  | 70% | 80% | 96% | 61% |  | CC(C)C[C@H](NC(=O)[C@H](C)NC(=O)[C@H](CCC(=O)O)NC(=O)[C@H](CC(C)C)NC(=O)[C@H](CC(C)C)NC(=O)[C@H](CCC(=O)O)NC(=O)[C@H](CC(N)=O)NC(=O)[C@H](CC(C)C)NC(=O)[C@H](CC(C)C)NC(=O)[C@H](CCC(=O)O)NC(=O)[C@H](CCCNC(=N)N)NC(=O)[C@H](Cc1ccccc1)NC(=O)[C@H](CC(C)C)NC(=O)[C@H](CC(=O)O)NC(=O)[C@H](CC(C)C)NC(=O)[C@@H](NC(=O)[C@@H]1CCCN1)C(C)C)C(=O)N[C@@H](CCCN)C(=O)N[C@@H](CCC(N)=O)C(=O)N[C@@H](CCCN)C(=O)N[C@@H](CC(C)C)C(=O)N[C@@H](CCCN)C(=O)O [peptide 14, PVLDLFRELLNELLEALOQOLO]
7 | 76% | 68% | 89% | 84% | 21% |  | CC(C)C[C@H](NC(=O)[C@H](C)NC(=O)[C@H](CCC(=O)O)NC(=O)[C@H](CC(C)C)NC(=O)C(C)(C)NC(=O)[C@H](CCC(=O)O)NC(=O)[C@H](Cc1c[nH]c2ccccc12)NC(=O)[C@H](CC(C)C)NC(=O)[C@H](CC(C)C)NC(=O)[C@H](CCC(=O)O)NC(=O)[C@H](CCCNC(=N)N)NC(=O)[C@H](Cc1ccccc1)NC(=O)[C@H](CC(C)C)NC(=O)[C@H](CC(=O)O)NC(=O)[C@H](CC(C)C)NC(=O)[C@@H](NC(=O)[C@@H]1CCCN1)C(C)C)C(=O)N[C@@H](CCCCN)C(=O)N[C@@H](CCC(N)=O)C(=O)N[C@@H](CCCCN)C(=O)N[C@@H](CC(C)C)C(=O)N[C@@H](CCCCN)C(=O)O [compound 50, PVLDLFRELLWEXLEALKQKLK] (H-PVLDLFRELLWE[Aib]LEALKQKLK-OH)
8 | 93% | 46% |  | 82% | 51% |  | CC(C)C[C@H](NC(=O)[C@H](C)NC(=O)[C@H](CCC(=O)O)NC(=O)[C@H](CC(C)C)NC(=O)C(C)(C)NC(=O)[C@H](CCC(=O)O)NC(=O)[C@H](CC(N)=O)NC(=O)[C@H](CC(C)C)NC(=O)[C@H](CC(C)C)NC(=O)[C@H](CCC(=O)O)NC(=O)[C@H](CCCNC(=N)N)NC(=O)[C@H](Cc1ccccc1)NC(=O)[C@H](Cc1ccccc1)NC(=O)[C@H](CC(=O)O)NC(=O)[C@H](CC(C)C)NC(=O)[C@@H](NC(=O)[C@@H]1CCCN1)C(C)C)C(=O)N[C@@H](CCCCN)C(=O)N[C@@H](CCC(N)=O)C(=O)N[C@@H](CCCCN)C(=O)N[C@@H](CC(C)C)C(=O)N[C@@H](CCCCN)C(=O)O [peptide 25, PVLDFFRELLNEXLEALKQKLK] (H-PVLDFFRELLNE[Aib]LEALKQKLK-OH)
9 | 73% | 63% | 81% | 82% | 20% |  | CC(C)C[C@H](NC(=O)[C@H](C)NC(=O)[C@H](CCC(=O)O)NC(=O)[C@H](CC(C)C)NC(=O)C(C)(C)NC(=O)[C@H](CCC(=O)O)NC(=O)[C@H](CC(N)=O)NC(=O)[C@H](CC(C)C)NC(=O)[C@H](CC(C)C)NC(=O)[C@H](CCC(=O)O)NC(=O)[C@H](Cc1c[nH]c2ccccc12)NC(=O)[C@H](Cc1ccccc1)NC(=O)[C@H](CC(C)C)NC(=O)[C@H](CC(=O)O)NC(=O)[C@H](CC(C)C)NC(=O)[C@@H](NC(=O)[C@@H]1CCCN1)C(C)C)C(=O)N[C@@H](CCCCN)C(=O)N[C@@H](CCC(N)=O)C(=O)N[C@@H](CCCCN)C(=O)N[C@@H](CC(C)C)C(=O)N[C@@H](CCCCN)C(=O)O [compound 51, PVLDLFWELLNEXLEALKQKLK] (H-PVLDLFWELLNE[Aib]LEALKQKLK-OH)
10 | 64% | 27% | 54% | 64% | 22% |  | PVLDLFRELLEELQKKLK [compound 220]
11 | 94% | 81% | 84% | 90% | 14% |  | VLDLFRELLNELLEALKQKLK [compound 67]
12 | 68% | 28% | 53% | 63% | 38% |  | Ac-PVLDLFRELLEEWKQKLK-NH2 [compound 215]
13 | 84% | 39% | 66% | 83% | 16% |  | PVLDLFRELLNELLEALKQ [compound 60]
14 | 51% | 21% | 23% | 56% | 8% |  | PVLDAFRELLEALAQLKK [compound 223]
15 | 63% | 18% | 27% | 70% | 5% |  | PVLDEFREKLNEALEALKQKLK [peptide 94, reference compound]
16 | 90% | 49% |  | 98% | 34% |  | CC(C)C[C@H](NC(=O)[C@H](C)NC(=O)[C@H](CCC(=O)O)NC(=O)[C@H](CC(C)C)NC(=O)C(C)(C)NC(=O)[C@H](CCC(=O)O)NC(=O)[C@H](CC(N)=O)NC(=O)[C@H](CC(C)C)NC(=O)[C@H](CC(C)C)NC(=O)[C@H](CCC(=O)O)NC(=O)[C@H](CC(C)C)NC(=O)[C@H](Cc1ccccc1)NC(=O)[C@H](CC(C)C)NC(=O)[C@H](CC(=O)O)NC(=O)[C@H](CC(C)C)NC(=O)[C@@H](NC(=O)[C@@H]1CCCN1)C(C)C)C(=O)N[C@@H](CCCCN)C(=O)N[C@@H](CCC(N)=O)C(=O)N[C@@H](CCCCN)C(=O)N[C@@H](CC(C)C)C(=O)N[C@@H](CCCCN)C(=O)O [compound 31, PVLDLFLELLNEXLEALKQKLK] (H-PVLDLFLELLNE[Aib]LEALKQKLK-OH)

Row | Compound | He (%) TFE [1] | He (%) free [1] | He (%) SUVs [1] | He (%) mics [1] | ACTIVITY (%) LCAT [2] | ACTIVITY (%) LCAT ([2]; listed as 18AM4)
17 | DWLKAFYDKVAEKLKEAF [peptide 244, reference compound] | 48% | 9% | 13% | 40% | 5% | 
18 | Ac-PVLDLFRELLEELKQKLK-NH2 [compound 193] | 87% | 34% | 87% | 88% | 96% | 
19 | Ac-PVLELFRELLEELKQKLK-NH2 [compound 194] | 93% | 38% |  | 93% | 88% | 
